The test system of one data set is LASV-p. Description: organism not typed. Format: cell-based, Lassa (LASV). Particulars: Vero, 24 h, read-out: LASV-p EC50 (nM).
The subject of a further data set is MACV-p. Description: organism not typed. The data set is classed as cell-based, Machupo (MACV). Particulars: Vero, 24 h, read-out: MACV-p EC50 (nM).
A further data set has as its system JUNV-p. Description: organism not typed. Format: cell-based, Junin (JUNV). Particulars: Vero, 24 h, read-out: JUNV-p EC50 (nM).
The test system of the next data set is TCRV-p. The data set can be described thus: organism not typed. Format: cell-based. The note with it: Vero, 24 h, read-out: TCRV-p EC50 (nM).
A short description of the next data set: in vitro. The note with it: African green monkey.

The EC50 is the concentration that produces a half-maximal response. With `COc1ccc(-n2cnc3ccc(-c4ccc(C(C)C)cc4)cc32)cc1` [Example A2, 1-(4-methoxyphenyl)-6-[4-(propan-2-yl)phenyl]-1H-1,3-benzodiazole], the EC50 was 6.6 nM with LASV-p, greater than 100 nM with MACV-p, greater than 100 nM in the data set on JUNV-p and greater than 100 nM in the data set with TCRV-p. The compound also returned a CC50 in “in vitro” of 25600 nM.
Regarding `CC(C)Oc1ccc(-c2cnc3ccc(-c4ccc(C(F)F)cc4)cn23)cc1` [Example C5, 6-[4-(difluoromethyl)phenyl]-3-[4-(propan-2-yloxy)phenyl]imidazo[1,2-a]pyridine], the EC50 in the data set with LASV-p was 4.1 nM; with MACV-p, 31.4 nM; in the data set on JUNV-p, 9.09 nM; in the data set with TCRV-p, greater than 25 nM. Moreover, the CC50 in the data set “in vitro” was determined as 4690 nM.
The like results for `CC(C)Oc1ccc(-c2ccc3ncc(-c4ccc(C5(O)CC5)cc4)n3c2)cc1` [Example C44, 1-(4-{6-[4-(propan-2-yloxy)phenyl]imidazo[1,2-a]pyridin-3-yl}phenyl)cyclopropan-1-ol] were, in that order, 0.23 nM, 0.32 nM, 0.07 nM, 0.135 nM and greater than 100 nM.
For `CC(C)Oc1ccc(-c2ccc3noc(-c4ccc(OC(C)C)cc4)c3c2)cc1` [Example D18, 3,5-bis[4-(propan-2-yloxy)phenyl]-2,1-benzoxazole] the same measures were greater than 25 nM, greater than 25 nM, 5.58 nM, greater than 25 nM and greater than 100000 nM.
The like results for `CC(=O)c1ccc(-c2ccc3ncn(-c4ccc(OC(C)C)cc4)c3n2)cc1` [Example B4, 1-(4-{3-[4-(propan-2-yloxy)phenyl]-3H-imidazo[4,5-b]pyridin-5-yl}phenyl)ethan-1-one] were, in that order, 0.956 nM, 18.6 nM, 4.31 nM, 14.9 nM and 19700 nM.
As for `CC(=O)c1ccc(-c2ccc3cnn(-c4ccc(OC(C)C)cc4)c3c2)cc1` [Example D3, 1-(4-{1-[4-(propan-2-yloxy)phenyl]-1H-indazol-6-yl}phenyl)ethan-1-one], the EC50 was 7.04 nM with LASV-p, 15.5 nM in the data set with MACV-p, 20.2 nM with JUNV-p and greater than 25 nM in the data set on TCRV-p. Besides, the CC50 in the data set “in vitro” was determined as 15900 nM.
For `CC(C)Oc1ccc(-c2ccn3cnc(-c4ccc(OC(C)C)cc4)c3c2)cc1` [Example D19, 1,7-bis[4-(propan-2-yloxy)phenyl]imidazo[1,5-a]pyridine] the same measures were greater than 25 nM, greater than 25 nM, greater than 25 nM, greater than 25 nM and 7540 nM.
For `CC(=O)c1ccc(-c2ccc3nnn(-c4ccc(OC(C)C)cc4)c3c2)cc1` [Example B14, 1-(4-{1-[4-(propan-2-yloxy)phenyl]-1H-1,2,3-benzotriazol-6-yl}phenyl)ethan-1-one] the same measures were 1.05 nM, 15.4 nM, 1.36 nM, greater than 25 nM and 7390 nM.
The like results for `CC(C)Oc1ccc(-c2cn3c(-c4ccc5[nH]ccc5c4)cnc3cn2)cc1` [Example D13, 5-{6-[4-(propan-2-yloxy)phenyl]imidazo[1,2-a]pyrazin-3-yl}-1H-indole] were, in that order, 12.3 nM, 12 nM, 3.29 nM, 10.3 nM and greater than 100000 nM.
As to `COc1ccc(-n2cnc3ccc(-c4cccc(C(C)C)c4)cc32)cc1` [Example A1, 1-(4-Methoxyphenyl)-6-[3-(propan-2-yl)phenyl]-1H-1,3-benzodiazole], the EC50 in the data set on LASV-p was 31.7 nM; in the data set with MACV-p it was greater than 100 nM; in the data set with JUNV-p, greater than 100 nM; in the data set with TCRV-p, greater than 100 nM. Further, the CC50 in “in vitro” was 12900 nM.
As to `COc1ccc(-n2cnc3ccc(-c4ccc(O)cc4)cc32)cc1` [Example A13, 4-[1-(4-methoxyphenyl)-1H-1,3-benzodiazol-6-yl]phenol], the EC50 is 5 nM in the data set on LASV-p, greater than 25 nM in the data set on MACV-p, greater than 25 nM with JUNV-p and greater than 25 nM in the data set with TCRV-p. The CC50 in “in vitro” came out at 1270 nM.
In the case of `CC(C)Oc1ccc(-n2cnc3cnc(-c4ccc5[nH]ccc5c4)cc32)cc1` [Example B7, 5-{1-[4-(propan-2-yloxy)phenyl]-1H-imidazo[4,5-c]pyridin-6-yl}-1H-indole], the EC50 was 8.18 nM with LASV-p, 24.1 nM with MACV-p, 16.2 nM in the data set on JUNV-p and greater than 25 nM in the data set with TCRV-p. In the data set “in vitro”, this compound gave a CC50 of 13900 nM.
Consider `COc1ccc(-n2cnc3ccc(-c4ccc(N5CCCCC5)cc4)cc32)cc1` [Example A15, 1-(4-methoxyphenyl)-6-[4-(piperidin-1-yl)phenyl]-1H-1,3-benzodiazole], for which the EC50 stood at 14.7 nM in the data set with LASV-p, 24.9 nM in the data set on MACV-p, 2.23 nM in the data set on JUNV-p and 29.6 nM in the data set with TCRV-p. In “in vitro”, this compound gave a CC50 of 12900 nM.
For `CC(C)Oc1ccc(-n2ccc3ccc(-c4ccc5[nH]ccc5c4)cc32)cc1` [Example D5, 6-(1H-indol-5-yl)-1-[4-(propan-2-yloxy)phenyl]-1H-indole] the same measures were 12.5 nM, greater than 25 nM, 27.8 nM, greater than 25 nM and 5.87 nM.
For `COc1ccc(-n2cnc3ccc(-c4ccccc4OC)cc32)cc1` [Example A5, 6-(2-methoxyphenyl)-1-(4-methoxyphenyl)-1H-1,3-benzodiazole] the same measures were greater than 25 nM, greater than 25 nM, greater than 25 nM, greater than 25 nM and less than 300 nM.
For `COc1ccc(-n2cnc3ccc(-c4ccc(CO)cc4)cc32)cc1` [Example A10, {4-[1-(4-methoxyphenyl)-1H-1,3-benzodiazol-6-yl]phenyl}methanol], the EC50 with LASV-p is 21.8 nM; in the data set with MACV-p, greater than 25 nM; in the data set on JUNV-p, greater than 25 nM; in the data set with TCRV-p it was greater than 25 nM. Besides, the CC50 in the data set “in vitro” was 4560 nM.
With `CC(C)Oc1ccc(-c2nnc3ccc(-c4ccc5[nH]ccc5c4)cn23)cc1` [Example D7, 5-{3-[4-(propan-2-yloxy)phenyl]-[1,2,4]triazolo[4,3-a]pyridin-6-yl}-1H-indole], the EC50 was 4.1 nM in the data set on LASV-p, greater than 25 nM in the data set on MACV-p, 18 nM in the data set on JUNV-p and 26.3 nM with TCRV-p. Moreover, in the data set “in vitro”, the CC50 is 1870 nM.
For `CC(C)Oc1ccc(-c2cnc3ccc(-c4ccc(C5(O)COC5)cc4)cn23)cc1` [Example C28, 3-(4-{3-[4-(propan-2-yloxy)phenyl]imidazo[1,2-a]pyridin-6-yl}phenyl)oxetan-3-ol] the same measures were 17.3 nM, greater than 25 nM, 14.9 nM, greater than 25 nM and greater than 100000 nM.
For `COCCOc1ccc(-c2cnc3ccc(-c4ccc(OC(C)C)cc4)cn23)cc1` [Example C42, 3-[4-(2-methoxyethoxy)phenyl]-6-[4-(propan-2-yloxy)phenyl]imidazo[1,2-a]pyridine] the same measures were 3.08 nM, 23.1 nM, 2.6 nM, 11.7 nM and 5360 nM.
`CC(C)Oc1ccc(-n2ncc3ccc(-c4ccc5[nH]ccc5c4)cc32)cc1` [Example D2, 6-(1H-indol-5-yl)-1-[4-(propan-2-yloxy)phenyl]-1H-indazole]: the EC50 in the data set with LASV-p was 7.99 nM; with MACV-p it was 22.5 nM; in the data set with JUNV-p it was 17.8 nM; in the data set with TCRV-p, greater than 25 nM. Also, in the data set “in vitro”, the CC50 came out at 4340 nM.
For `COc1ccc(-c2ccc3ncn(-c4ccc(OC)cc4)c3c2)cc1` [Example A3, 1,6-bis(4-methoxyphenyl)-1H-1,3-benzodiazole] the same measures were 7.6 nM, greater than 25 nM, greater than 25 nM, greater than 25 nM and less than 300 nM.
The like results for `CC(C)Oc1ccc(-c2ccc3ncn(-c4ccc5[nH]ccc5c4)c3c2)cc1` [Example A27, 1-(1H-indol-5-yl)-6-[4-(propan-2-yloxy)phenyl]-1H-1,3-benzodiazole] were, in that order, 0.6 nM, 0.38 nM, 0.39 nM, 2.57 nM and 3860 nM.
The like results for `COc1ccc(-n2cnc3ccc(-c4cccc(OC)c4)cc32)cc1` [Example A6, 6-(3-methoxyphenyl)-1-(4-methoxyphenyl)-1H-1,3-benzodiazole] were, in that order, greater than 25 nM, greater than 25 nM, greater than 25 nM, greater than 25 nM and 9720 nM.
With `CC(C)Oc1ccc(-c2ccc3nc(C(N)=O)c(-c4ccc(OC(C)C)cc4)n3c2)cc1` [Example D22, 3,6-bis[4-(propan-2-yloxy)phenyl]imidazo[1,2-a]pyridine-2-carboxamide], the EC50 with LASV-p, with MACV-p, with JUNV-p and with TCRV-p was greater than 25 nM in each case. The compound further returned a CC50 in “in vitro” of 49500 nM.
For the compound `CC(C)Oc1ccc(-n2cnc3cnc(-c4ccc(C(C)(C)O)cc4)nc32)cc1` [Example B9, 2-(4-{9-[4-(propan-2-yloxy)phenyl]-9H-purin-2-yl}phenyl)propan-2-ol], the EC50 in the data set on LASV-p was 19.7 nM; with MACV-p, 29.7 nM; in the data set on JUNV-p it was 11.9 nM; in the data set with TCRV-p it was greater than 25 nM. In “in vitro”, this compound showed a CC50 of 27700 nM.

These data come from patent publication US20220281825A1 (priority 2016, published 2022).
